System: T-cells
Experiment: In vivo activity: CD25 expression on CD4+ or CD8+ T-cells of mice stimulated with anti-CD3 antibody
Details: 2 μg anti-CD3 antibody, 24 hours
How it was run: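 C57BL/6 or BALB/c mice dosed with inhibitor (IV, IP, SC or PO, e.g. BID or TID), then stimulated with 2 μg anti-CD3 antibody. Plasma IL-2, IFNγ, TNFα at 8 h and CD25 on CD4+/CD8+ T-cells by flow cytometry at 24 h; fold change over vehicle plus anti-CD3, binned A–E.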

C[C@H](Cc1nncn1C)c1cccc(NC(=O)c2ccnc(C(F)(F)F)n2)c1 [Compound 187, (R)-N-(3-(1-(4-methyl-4H-1,2,4-triazol-3-yl)propan-2-yl)phenyl)-2-(trifluoromethyl)pyrimidine-4-carboxamide]
CD4+ T-cell % CD25+ (90 mpk IP BID): C (C indicates 1.51-2.00) | CD8+ T-cell % CD25+ (90 mpk IP BID): D (D indicates 1.00-1.50)

Cn1cnnc1[C@@H]1C[C@@H]1c1cccc(N2Cc3c(cccc3C(F)(F)F)C2=O)c1 [Compound 282, 2-(3-((1S,2R)-2-(4-methyl-4H-1,2,4-triazol-3-yl)cyclopropyl)phenyl)-4-(trifluoromethyl)isoindolin-1-one]
CD4+ T-cell % CD25+ (90 mpk PO BID): D (D indicates 1.00-1.50) | CD8+ T-cell % CD25+ (90 mpk PO BID): D (D indicates 1.00-1.50) | CD4+ T-cell % CD25+ (135 mpk PO BID): C (C indicates 1.51-2.00) | CD8+ T-cell % CD25+ (135 mpk PO BID): D (D indicates 1.00-1.50) | CD4+ T-cell % CD25+ (180 mpk PO BID): B (B indicates 2.01-2.50) | CD8+ T-cell % CD25+ (180 mpk PO BID): D (D indicates 1.00-1.50)

Reference: patent US20220324835A1 (Nurix Therapeutics, Inc., priority 2018, published 2022)
